Results as given in article PMC12845312, “Hydrazonylthiazole Derivatives as Dual EGFR and ALR2 Inhibitors: Design, Synthesis, and Comprehensive In Vitro and In Silico Evaluation for Potential Anticancer Activity” (Pharmaceuticals, 2025).
Like-named read-outs stand apart in the source and are kept apart here. Each block holds one compound with its values, some of them ahead of it.

Key:
[1] = target: ALR2 (Homo sapiens, UniProt P15121); experiment: In vitro ALR2 inhibition assay (NADPH absorbance, DL-glyceraldehyde substrate); assay type: biochemical; settings: for Ki: ALR2, DL-glyceraldehyde substrate, mean ±SEM (n = 3)
Protocol: The protocol followed earlier steady-state kinetic studies with minor adjustments. Measurements were performed at 37 °C in 10 mM sodium phosphate buffer (pH 7.4) in 1 mL quartz cuvettes (1 cm path length). Each reaction mixture contained 0.11 mM NADPH and DL-glyceraldehyde at final concentrations between 0.071 and 0.376 mM. Test compounds were introduced from DMSO stock solutions, and the total DMSO content was kept below 1% (v/v).
Prior to substrate addition, the enzyme and inhibitor were combined and left on ice for 1 min to allow initial complex formation. The reaction was initiated by adding DL-glyceraldehyde, and the decrease in absorbance at 340 nm (ε340 = 6.22 mM^−1 cm^−1) was recorded for 180 s using a calibrated UV-Vis instrument. […] All values represent the mean of triplicate determinations, and the entire experiment was repeated on three separate days (n = 3). Reaction rates were calculated from the linear segment of each kinetic trace.
For selected compounds, including compound 5, extended kinetic analyses were conducted by varying both substrate and inhibitor levels. The resulting Lineweaver-Burk plots (1/v vs. 1/[S]) were used to interpret the inhibition pattern (Figure 18). Secondary replots were used to extract KI values by linear regression. Data processing and curve fitting were performed in GraphPad Prism (v10.0), and kinetic parameters are expressed as mean ± SEM.

[2] = test system: MCF-7 cells; settings: cited from earlier work
[3] = test system: A549 (NSCLC) cells; experiment: MTT cytotoxicity assay in A549 cells; assay type: cell-based; settings: for reduction in A549 viability: 10 µM; for IC50: Homo sapiens, A549
Protocol: (§1) A549 (ATCC, Manassas, VA, USA) and MCF-7 (ATCC, VA, USA) cells were grown in Dulbecco’s Modified Eagle Medium (DMEM; Wako, Osaka, Japan) containing 10% fetal bovine serum (FBS; Equitech-Bio, Kerrville, TX, USA). Jurkat T-cells (ATCC, VA, USA) were maintained in RPMI-1640 medium (Wako Pure Chemical Industries, Osaka, Japan) supplemented with 10% FBS, while PBMCs (Precision Bioservices, Frederick, MD, USA) were expanded in the same medium supplemented with 10% human AB serum (Gemini, Woodland, CA, USA). Streptomycin was added to all culture media at a final concentration of 89 µg/mL (Meiji Seika Pharma, Tokyo, Japan). All cells were kept at 37 °C under humidified conditions with 5% CO2. For viability measurements, A549 and MCF-7 cells were seeded into 24-well plates, whereas PBMCs were dispensed into 96-well plates (Iwaki, Asahi Glass, Chiba, Japan) at initial densities of 4 × 10^4 cells/mL and 5 × 10^5 cells/mL, respectively. […] The DMSO content was kept constant at 1% in all wells. Cell viability was assessed using the MTT colorimetric assay (Dojindo, Kumamoto, Japan), following established procedures with minor protocol refinements previously reported in the literature.

[4] = test system: MCF-7 (breast cancer) cells; experiment: MTT cytotoxicity assay in MCF-7 cells; assay type: cell-based; settings: for reduced viability in MCF-7 cells: 10 µM; for IC50: Homo sapiens, MCF7
Protocol: as §1

[5] = test system: Jurkat leukemia cells; experiment: MTT cytotoxicity assay in Jurkat cells; assay type: cell-based; settings: Homo sapiens
Protocol: (§2) A549 (ATCC, Manassas, VA, USA) and MCF-7 (ATCC, VA, USA) cells were grown in Dulbecco’s Modified Eagle Medium (DMEM; Wako, Osaka, Japan) containing 10% fetal bovine serum (FBS; Equitech-Bio, Kerrville, TX, USA). Jurkat T-cells (ATCC, VA, USA) were maintained in RPMI-1640 medium (Wako Pure Chemical Industries, Osaka, Japan) supplemented with 10% FBS, while PBMCs (Precision Bioservices, Frederick, MD, USA) were expanded in the same medium supplemented with 10% human AB serum (Gemini, Woodland, CA, USA). Streptomycin was added to all culture media at a final concentration of 89 µg/mL (Meiji Seika Pharma, Tokyo, Japan). All cells were kept at 37 °C under humidified conditions with 5% CO2. For viability measurements, A549 and MCF-7 cells were seeded into 24-well plates, whereas PBMCs were dispensed into 96-well plates (Iwaki, Asahi Glass, Chiba, Japan) at initial densities of 4 × 10^4 cells/mL and 5 × 10^5 cells/mL, respectively. […] Concentrated stock solutions were prepared in dimethyl sulfoxide (DMSO; Wako Pure Chemical Industries) and diluted with culture medium to final assay concentrations ranging from […]. The DMSO content was kept constant at 1% in all wells. Cell viability was assessed using the MTT colorimetric assay (Dojindo, Kumamoto, Japan), following established procedures with minor protocol refinements previously reported in the literature.

[6] = test system: peripheral blood mononuclear cells (PBMCs); experiment: MTT cytotoxicity assay in PBMCs (selectivity); assay type: cell-based; settings: for SI (Selectivity Index): IC50 for PBMC/IC50 for Jurkat cell line; for IC50: PBMC, MTT assay
Protocol: as §2

[7] = test system: A549 cells; experiment: Apoptosis, Annexin V/ethidium homodimer staining; assay type: cell-based; settings: IC50 concentration, 24 h
Protocol: After exposure, cells were detached using 0.05% trypsin, rinsed twice with 1× binding buffer, and prepared for fluorescence-based apoptotic assessment. The resulting pellet was suspended in a staining mixture consisting of 50 µL of 1× binding buffer, along with 4 µL each of FITC-Annexin V, ethidium homodimer III, and Hoechst 33342. The suspension was incubated for 20 min at room temperature in the dark to ensure proper labeling. Following staining, cells were washed again with binding buffer, fixed in 2% paraformaldehyde, and briefly rinsed with phosphate-buffered saline (PBS). Apoptotic and necrotic populations were visualized and recorded using a Biorevo BZ-9000 fluorescence microscope (Keyence, Osaka, Japan), following procedures adapted from previously reported workflows.

[8] = target: T1, EGFR (Homo sapiens, UniProt P00533); experiment: EGFR kinase inhibition (Promega EGFR TK kit, ADP-Glo); assay type: biochemical
T1 construct: purchased Promega V3831
T1 sequence (P00533 25-1210): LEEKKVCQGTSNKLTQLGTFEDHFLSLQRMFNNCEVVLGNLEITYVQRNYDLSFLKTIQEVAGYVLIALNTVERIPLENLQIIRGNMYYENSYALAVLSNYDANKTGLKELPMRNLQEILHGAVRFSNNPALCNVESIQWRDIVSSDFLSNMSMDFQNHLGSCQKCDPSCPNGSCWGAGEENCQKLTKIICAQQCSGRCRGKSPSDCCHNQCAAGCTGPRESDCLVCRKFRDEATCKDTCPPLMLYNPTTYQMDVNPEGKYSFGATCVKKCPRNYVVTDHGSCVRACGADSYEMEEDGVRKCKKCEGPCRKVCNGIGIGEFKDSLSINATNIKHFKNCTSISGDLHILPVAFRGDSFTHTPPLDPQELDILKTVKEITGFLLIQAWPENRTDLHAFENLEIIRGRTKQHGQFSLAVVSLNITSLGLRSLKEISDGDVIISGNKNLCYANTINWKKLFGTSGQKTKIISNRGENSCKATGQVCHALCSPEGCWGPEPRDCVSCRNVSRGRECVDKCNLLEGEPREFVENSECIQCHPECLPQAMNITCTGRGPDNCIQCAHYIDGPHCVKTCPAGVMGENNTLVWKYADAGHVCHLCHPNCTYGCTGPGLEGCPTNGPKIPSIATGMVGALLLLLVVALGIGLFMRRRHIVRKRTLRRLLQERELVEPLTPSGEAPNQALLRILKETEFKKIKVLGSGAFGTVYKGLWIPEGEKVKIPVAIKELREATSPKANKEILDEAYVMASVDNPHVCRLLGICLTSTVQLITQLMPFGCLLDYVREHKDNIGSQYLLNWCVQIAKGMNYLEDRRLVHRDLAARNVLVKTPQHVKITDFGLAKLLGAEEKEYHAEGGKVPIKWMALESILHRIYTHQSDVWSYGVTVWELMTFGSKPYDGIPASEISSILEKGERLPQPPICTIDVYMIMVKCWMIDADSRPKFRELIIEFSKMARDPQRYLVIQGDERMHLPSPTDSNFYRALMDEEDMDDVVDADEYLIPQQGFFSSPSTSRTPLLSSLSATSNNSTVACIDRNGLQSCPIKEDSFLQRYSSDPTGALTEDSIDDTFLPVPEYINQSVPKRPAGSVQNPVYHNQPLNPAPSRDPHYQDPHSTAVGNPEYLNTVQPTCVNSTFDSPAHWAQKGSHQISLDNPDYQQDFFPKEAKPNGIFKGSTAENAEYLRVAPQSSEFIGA
Protocol: (§3) EGFR kinase activity was monitored using the Promega EGFR TK kit (Cat. No. V3831) at final test concentrations of 1 µM and 10 µM. HER-2 activity was assessed under analogous conditions using the Promega HER-2 TK kit (Cat. No. V9381) at 10 µM, in accordance with earlier studies. For each assay, the enzyme and its substrate were diluted in a mixture containing 95 µL of 2.5× kinase buffer and 15 µL of 100 µM ATP. Reactions were assembled in 384-well plates by dispensing 4 µL of each compound solution (0.1–100 µM) into wells containing 8 µL of the enzyme/ATP/substrate preparation. Plates were incubated for 1.5 h at room temperature, after which ADP formation, reflecting kinase turnover, was quantified using the ADP-Glo™ detection system (Promega, Madison, WI, USA). Luminescence was measured with an Infinite M1000 reader (Tecan, Grödig, Austria).

[9] = target: T2, HER-2 (Homo sapiens, UniProt P04626); experiment: HER-2 kinase inhibition (Promega HER-2 TK kit, ADP-Glo); assay type: biochemical
T2 construct: purchased Promega V9381
T2 sequence (P04626 23-1255): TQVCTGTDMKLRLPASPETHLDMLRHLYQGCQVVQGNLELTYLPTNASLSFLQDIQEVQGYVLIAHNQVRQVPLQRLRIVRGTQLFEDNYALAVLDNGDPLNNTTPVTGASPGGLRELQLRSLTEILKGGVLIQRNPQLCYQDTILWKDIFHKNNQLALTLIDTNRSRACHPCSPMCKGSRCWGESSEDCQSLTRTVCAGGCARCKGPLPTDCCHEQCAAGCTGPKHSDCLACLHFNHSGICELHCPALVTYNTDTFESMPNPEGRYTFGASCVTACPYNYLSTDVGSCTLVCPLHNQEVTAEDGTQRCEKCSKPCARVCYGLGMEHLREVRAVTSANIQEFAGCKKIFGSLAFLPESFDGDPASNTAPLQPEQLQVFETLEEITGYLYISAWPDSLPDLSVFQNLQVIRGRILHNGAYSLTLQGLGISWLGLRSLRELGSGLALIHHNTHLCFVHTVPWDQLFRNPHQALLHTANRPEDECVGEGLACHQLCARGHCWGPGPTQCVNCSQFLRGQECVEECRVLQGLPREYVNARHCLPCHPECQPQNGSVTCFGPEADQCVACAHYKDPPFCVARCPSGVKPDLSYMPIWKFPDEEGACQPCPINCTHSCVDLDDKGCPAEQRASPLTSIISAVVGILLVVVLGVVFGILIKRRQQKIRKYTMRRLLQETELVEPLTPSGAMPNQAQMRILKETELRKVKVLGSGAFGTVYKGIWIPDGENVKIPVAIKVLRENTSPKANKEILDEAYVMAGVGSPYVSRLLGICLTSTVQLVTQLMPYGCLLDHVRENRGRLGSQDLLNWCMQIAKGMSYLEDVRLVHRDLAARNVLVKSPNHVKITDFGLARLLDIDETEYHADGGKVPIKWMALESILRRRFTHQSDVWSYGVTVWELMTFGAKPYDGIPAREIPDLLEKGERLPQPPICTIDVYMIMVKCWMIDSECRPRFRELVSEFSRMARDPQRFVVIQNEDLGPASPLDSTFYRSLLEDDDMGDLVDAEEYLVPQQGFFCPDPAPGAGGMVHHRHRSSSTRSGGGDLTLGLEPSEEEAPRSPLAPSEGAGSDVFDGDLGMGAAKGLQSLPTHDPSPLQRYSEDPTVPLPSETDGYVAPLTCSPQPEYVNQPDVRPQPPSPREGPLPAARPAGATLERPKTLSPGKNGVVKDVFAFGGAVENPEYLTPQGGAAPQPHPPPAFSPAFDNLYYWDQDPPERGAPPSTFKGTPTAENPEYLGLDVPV
Protocol: as §3

[10] = test system: A549 cells; parameters: method as in doi:10.1016/j.molstruc.2024.139067; settings: read-out: IC50 against A549 cells; cited from earlier work
[11] = target: T1, EGFR; settings: read-out: EGFR inhibition IC50 (converted); cited from earlier work
[12] = read-out: IC50 against MCF-7 cells

Ki [1]: 440 ± 90 nM
Compound: Cn1ccnc1/C=N/Nc1nc(-c2ccc(F)cc2)cs1 [Compound 3, 1-[(4-(4-Fluorophenyl)-1,3-thiazol-2-yl)amino]-2-[(1-methyl-1H-imidazol-2-yl)methylidene]hydrazine]

Ki [1]: 1910 ± 100 nM
Compound: Cn1ccnc1/C=N/Nc1nc(-c2ccc3ccccc3c2)cs1 [Compound 11, 1-[(4-(Naphthalen-2-yl)-1,3-thiazol-2-yl)amino]-2-[(1-methyl-1H-imidazol-2-yl)methylidene]hydrazine]

Ki [1]: 210 ± 20 nM
Compound: Cn1ccnc1/C=N/Nc1nc(-c2ccc(C#N)cc2)cs1 [Compound 6, 1-[(4-(4-Cyanophenyl)-1,3-thiazol-2-yl)amino]-2-[(1-methyl-1H-imidazol-2-yl)methylidene]hydrazine]

Compound: Cn1c(-c2csc(NN=C3CCCC3)n2)nc2ccccc21 [Compound 4a]
IC50 [2, 12]: 6300 nM

Ki [1]: 1830 ± 110 nM
Compound: Cn1ccnc1/C=N/Nc1nc(-c2ccc([N+](=O)[O-])cc2)cs1 [Compound 2, 1-[(4-(4-Nitrophenyl)-1,3-thiazol-2-yl)amino]-2-[(1-methyl-1H-imidazol-2-yl)methylidene]hydrazine]

inhibition at 1 µM [8]: 45% | inhibition at 10 µM [8]: 74% | inhibition at 10 µM [9]: 1.89% | Ki [1]: 2480 ± 140 nM
Compound: Cn1ccnc1/C=N/Nc1nc(-c2ccc(-c3cccs3)cc2)cs1 [Compound 13, 1-[(4-(4-(Thiophen-2-yl)phenyl)-1,3-thiazol-2-yl)amino]-2-[(1-methyl-1H-imidazol-2-yl)methylidene]hydrazine]
reduction in A549 viability [3]: ~ 67% | IC50 [3]: 1330 ± 410 nM | reduced viability in MCF-7 cells [4]: 69% | IC50 [4]: 1740 ± 380 nM | IC50 [5]: 1650 ± 400 nM | SI (Selectivity Index) [6]: 138.90 | IC50 [6]: 229000 ± 26200 nM | apoptosis induction [7]: triggered apoptosis in A549 cells significantly compared with lapatinib

Compound: O=[N+]([O-])c1ccc(-c2csc(N/N=C/c3c4ccccc4cc4ccccc34)n2)cc1 [Compound A5]
IC50 [2, 12]: 7000 nM | IC50 [10]: 8510 nM | IC50 [11]: 880 nM

inhibition at 1 µM [8]: 23% | inhibition at 10 µM [8]: 51% | Ki [1]: 80 ± 10 nM | inhibition profile (Lineweaver–Burk) ([1]; toward DL-glyceraldehyde): competitive inhibition profile
Compound: Cn1ccnc1/C=N/Nc1nc(-c2ccc(Br)cc2)cs1 [Compound 5]
reduction in A549 viability [3]: ~ 59% | IC50 [3]: 6870 ± 2100 nM | reduced viability in MCF-7 cells [4]: 67% | IC50 [4]: 2780 ± 2850 nM | IC50 [5]: 1940 ± 650 nM | SI (Selectivity Index) [6]: 37.39 | IC50 [6]: 72500 ± 14000 nM

Ki [1]: 240 ± 20 nM
Compound: Cn1ccnc1/C=N/Nc1nc(-c2ccc(S(C)(=O)=O)cc2)cs1 [Compound 10, 1-[(4-(4-Methylsulfonylphenyl)-1,3-thiazol-2-yl)amino]-2-[(1-methyl-1H-imidazol-2-yl)methylidene]hydrazine]

Compound: CCOC(=O)c1s/c(=N/N=C(\C)c2ccc(Nc3ccnc4cc(Cl)ccc34)cc2)n(C)c1C [Compound 6b]
IC50 ([2]; read-out: IC50 against MCF-7 cell line): 5350 nM | IC50 [11]: 18.9 nM

Ki [1]: 280 ± 30 nM
Compound: Cc1ccc(-c2csc(N/N=C/c3nccn3C)n2)cc1 [Compound 7, 1-[(4-(4-Methylphenyl)-1,3-thiazol-2-yl)amino]-2-[(1-methyl-1H-imidazol-2-yl)methylidene]hydrazine]

Ki [1]: 910 ± 50 nM
Compound: Cn1ccnc1/C=N/Nc1nc(-c2ccc(C(F)(F)F)cc2)cs1 [Compound 9, 1-[(4-(4-Trifluoromethylphenyl)-1,3-thiazol-2-yl)amino]-2-[(1-methyl-1H-imidazol-2-yl)methylidene]hydrazine]

Ki [1]: 210 ± 20 nM
Compound: COc1ccc(-c2csc(N/N=C/c3nccn3C)n2)cc1 [Compound 8, 1-[(4-(4-Methoxyphenyl)-1,3-thiazol-2-yl)amino]-2-[(1-methyl-1H-imidazol-2-yl)methylidene]hydrazine]

Compound: C/C(=N\Nc1nc(C)c(/N=N/c2ccc(Cl)cc2)s1)c1cccs1 [Compound 5j]
IC50 ([2]; read-out: IC50 toward MCF-7 cells): 10900 nM | IC50 [11]: 82.8 nM

Ki [1]: 280 ± 30 nM
Compound: Cn1ccnc1/C=N/Nc1nc(-c2ccc(Cl)cc2)cs1 [Compound 4, 1-[(4-(4-Chlorophenyl)-1,3-thiazol-2-yl)amino]-2-[(1-methyl-1H-imidazol-2-yl)methylidene]hydrazine]

Ki [1]: 2010 ± 100 nM
Compound: Cn1ccnc1/C=N/Nc1nc(-c2ccc3c(c2)OCO3)cs1 [Compound 12, 1-[(4-(Benzo[d][1,3]dioxol-5-yl)-1,3-thiazol-2-yl)amino]-2-[(1-methyl-1H-imidazol-2-yl)methylidene]hydrazine]

Ki [1]: 2640 ± 160 nM
Compound: Cn1ccnc1/C=N/Nc1nc(-c2ccccc2)cs1 [Compound 1, 1-[(4-Phenyl-1,3-thiazol-2-yl)amino]-2-[(1-methyl-1H-imidazol-2-yl)methylidene]hydrazine]

inhibition at 10 µM [9]: 93%
Compound: CS(=O)(=O)CCNCc1ccc(-c2ccc3ncnc(Nc4ccc(OCc5cccc(F)c5)c(Cl)c4)c3c2)o1 [Lapatinib, lapatinib, reference compound]
IC50 [3]: 18000 ± 5120 nM | IC50 [4]: 8430 ± 2850 nM | IC50 [5]: 1350 ± 410 nM | IC50 [6]: 9790 ± 2690 nM | apoptosis induction [7]: highly significant increases vs. untreated control
